Source: paper PMC4747042 (Molecular microbiology, 2009)

Biological target: T1, MenA (Mycobacterium tuberculosis, UniProt P9WIP3)
T1 sequence (P9WIP3 1-292): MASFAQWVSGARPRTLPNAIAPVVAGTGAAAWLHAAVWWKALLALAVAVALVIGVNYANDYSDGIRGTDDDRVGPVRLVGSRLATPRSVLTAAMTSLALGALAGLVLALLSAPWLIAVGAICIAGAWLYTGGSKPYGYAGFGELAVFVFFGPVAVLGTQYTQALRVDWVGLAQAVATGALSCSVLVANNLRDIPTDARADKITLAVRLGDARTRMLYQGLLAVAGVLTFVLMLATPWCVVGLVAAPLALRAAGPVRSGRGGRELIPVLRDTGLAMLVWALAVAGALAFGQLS
Format: biochemical

C=CCN(C)CCCCCCOc1ccc(C(=O)c2ccc(Br)cc2)c(F)c1 [Ro 48-8071]
IC50: 9 µM
